Results reported in patent publication US20090111182A1, “Method for Propagation of Plant” (priority 2005, published 2009).

Experiments:
[1] = test system: embryogenic callus from Double Take; experiment: Somatic embryo induction in liquid medium (flask), effects of sugar composition and addition of BA; format: cell-based, Spathiphyllum (cultivar Double Take); settings: sucrose 0%, sorbitol 3%, fructose 1.1%, BA 0 ppm
Method: (§1) MS liquid medium (pH 5.8) containing 1% sucrose, 3% sorbitol, and MES 5 mM was used as basal medium. Proline and glutamic acid were added to the media at the following concentrations. […] The fresh weights the thus induced somatic embryos were measured (Table 1).
Media with compositions listed in Table 2 were prepared (compositions other than those listed in Table 2 were the same as those of the “somatic embryo induction medium.”).

[2] = test system: embryogenic callus of the cultivar Petite; experiment: Somatic embryo induction in liquid medium (shaken Erlenmeyer flask), effects of proline and glutamic acid; format: cell-based, Spathiphyllum (cultivar Petite); settings: 0.05 g callus, 40 ml medium, 6 weeks
Method: as §1

For O=C(CO)[C@@H](O)[C@H](O)[C@H](O)CO [Fructose, fructose], the “Weight of somatic embryo” value [1] was 3.8 (g)/flask.

With N[C@@H](CCC(=O)O)C(=O)O [Glutamic acid, glutamic acid] the “Amount of embryo collected” value ([2]; proline 0 mM, glutamic acid 3 mM) was 3.5 g/flask.

For O=C(O)[C@@H]1CCCN1 [Proline, proline], the “Amount of embryo collected” value ([2]; proline 3 mM, glutamic acid 0 mM) was 3.4 g/flask.
